This note sets out measurements from patent publication US20120220581A1, “IMIDAZO[1,2-b]PYRIDAZINE DERIVATIVES AND THEIR USE AS PDE10 INHIBITORS” (Janssen-Cilag, S.A., priority 2009, published 2012).

The target in test [1] is T1, Rat recombinant PDE10A (rPDE10A2) (Rattus norvegicus, UniProt Q9QYJ6).
T1 construct: inferred from the Ni metal chelate purification; made in house; host or cells: Sf9 insect cells (baculovirus)
T1 sequence (Q9QYJ6 1-794): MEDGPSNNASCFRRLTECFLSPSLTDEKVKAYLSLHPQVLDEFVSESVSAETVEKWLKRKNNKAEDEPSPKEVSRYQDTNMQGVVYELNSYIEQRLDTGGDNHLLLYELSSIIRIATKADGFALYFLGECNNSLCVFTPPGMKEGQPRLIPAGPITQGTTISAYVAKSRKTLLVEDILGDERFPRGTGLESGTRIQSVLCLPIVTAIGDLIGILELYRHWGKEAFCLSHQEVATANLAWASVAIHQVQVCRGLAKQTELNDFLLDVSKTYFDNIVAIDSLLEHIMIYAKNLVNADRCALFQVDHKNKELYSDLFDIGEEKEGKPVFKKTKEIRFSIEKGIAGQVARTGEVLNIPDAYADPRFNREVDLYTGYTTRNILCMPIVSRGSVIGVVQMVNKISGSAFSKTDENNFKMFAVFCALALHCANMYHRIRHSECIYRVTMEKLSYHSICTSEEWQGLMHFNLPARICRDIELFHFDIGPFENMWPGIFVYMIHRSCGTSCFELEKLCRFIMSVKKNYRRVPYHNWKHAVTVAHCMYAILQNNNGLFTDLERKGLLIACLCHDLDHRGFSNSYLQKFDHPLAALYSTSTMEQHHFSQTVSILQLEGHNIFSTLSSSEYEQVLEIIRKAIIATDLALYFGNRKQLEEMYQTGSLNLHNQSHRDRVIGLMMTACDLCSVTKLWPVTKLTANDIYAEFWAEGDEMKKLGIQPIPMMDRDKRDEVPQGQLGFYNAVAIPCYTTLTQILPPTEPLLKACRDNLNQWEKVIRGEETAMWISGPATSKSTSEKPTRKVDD
Description: In vitro assay PDE10A (SPA, 3H-cAMP). The format is biochemical. The procedure, abridged:
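Rat PDE10A2 expressed in Sf9 cells and Ni-purified; incubated with 60 nM cAMP plus 0.008 μCi 3H-cAMP in 50 mM Tris pH 7.8, 8.3 mM MgCl2, 1.7 mM EGTA for 60 min at room temperature. Product quantified by scintillation proximity counting; final DMSO 1%.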

Test [2] concerns the target other members of the PDE family (Homo sapiens, UniProt O00408). As to the kind of experiment: In vitro PDE selectivity assay (SPA), other members of the PDE family (protocols in Table A). The class given is biochemical. Conditions: hPDE2A; read-out: PDE 2A (expressed as pIC50) (converted). The procedure:
(§1) Rat recombinant PDE10A (rPDE10A2) was expressed in Sf9 cells using a recombinant rPDE10A baculovirus construct. Cells were harvested after 48 h of infection and the rPDE10A protein was purified by metal chelate chromatography on Ni-sepharose 6FF. Tested compounds were dissolved and diluted in 100% DMSO to a concentration 100 fold of the final concentration in the assay. Compound dilutions (0.4 μl) were added in 384 well plates to 20 μl of incubation buffer (50 mM Tris pH 7.8, 8.3 mM MgCl2, 1.7 mM EGTA). 10 μl of rPDE10A enzyme in incubation buffer was added and the reaction was started by addition of 10 μl substrate to a final concentration of 60 nM cAMP and 0.008 μCi ^3H-cAMP. The reaction was incubated for 60 minutes at room temperature. After incubation, the reaction was stopped with 20 μl of stop solution consisting of 17.8 mg/ml PDE SPA (scintillation proximity assay) beads. After sedimentation of the beads during 30 minutes the radioactivity was measured in a Perkin Elmer Topcount scintillation counter and results were expressed as cpm. For blanc values the enzyme was omitted from the reaction and replaced by incubation buffer. Control values were obtained by addition of a final concentration of 1% DMSO instead of compound. The same assay principle is applied for the measurement of the affinity of the compound for other members of the PDE family with appropriate modifications in incubation buffer, substrate concentration, incubation time and stop solution. An overview of the different protocols is presented in table A. A best fit curve is fitted by a minimum sum of squares method to the plot of % of control value substracted with blanc value versus compound concentration and the half maximal inhibitory concentration (IC50) value is derived from this curve.
(§2) The compounds of the invention are generally selective for PDE10 compared to other PDEs and there are a few that also have affinity for PDE1B1, 4D3 and 5A3.

The subject of test [3] is apomorphine-induced stereotypy in rats. Description: Apomorphine-induced stereotypy in rats (APO). The format is in vivo. The conditions noted are these: Rattus norvegicus. The protocol: Apomorphine (1.0 mg/kg, i.v.)-induced stereotypy (compulsive sniffing, licking, chewing) was scored every 5 min over the first hour after injection of apomorphine, following a 1 hour interval pre-treatment with the test compound. The score system was: (3) pronounced, (2) moderate, (1) slight, and (0) absent.

The next test concerns the target T2, PDE10 (Rattus norvegicus, UniProt Q9QYJ6).
T2 construct: from tissue; host or cells: rat brain sections, striatum (in vivo dosing, ex vivo autoradiography)
T2 sequence (Q9QYJ6 1-794): T1 sequence (Q9QYJ6 1-794)
As to the kind of experiment: PDE10 occupancy ([3H]-MP-10, striatum). The class given is in vivo. Conditions: rat; for ED50: dose response; for receptor occupancy at 10 mg/kg: single dose 10 mg/kg. The protocol: Dose-response or single dose experiments were performed to measure PDE10 occupancy 1 hour after subcutaneous (s.c.) or oral (p.o.) administration. Male Wistar rats (200 g) were treated by s.c. or p.o. administration of various PDE10 inhibitors. The PDE10 radioligand [^3H]-MP-10 (10 μCi/animal) was injected intravenously (i.v.) 30 minutes before sacrifice. Brains were immediately removed from the skull and rapidly frozen. Twenty μm-thick brain sections were cut using a cryostat-microtome, thaw-mounted on microscope slides and loaded in a β-imager to quantify PDE10 occupancy in the striatum.

A further test has as its target PDE4D3 (Homo sapiens, UniProt Q08499). As to the kind of experiment: In vitro PDE selectivity assay (SPA), PDE4D3. The class given is biochemical. The conditions noted are these: hPDE4D3; read-out: PDE 4D3 (expressed as pIC50) (converted). The protocol: as §1, §2
The target in test [4] is other members of the PDE family (Homo sapiens, UniProt O76083). Description: In vitro PDE selectivity assay (SPA), other members of the PDE family (protocols in Table A). The format is biochemical. The conditions noted are these: hPDE9A; read-out: PDE 9A (expressed as pIC50) (converted). The protocol: as §1, §2
Test [5] addresses other members of the PDE family (Homo sapiens, UniProt Q13946). The description is as above. The format is biochemical. The conditions noted are these: hPDE7A1; read-out: PDE 7A (expressed as pIC50) (converted). The protocol:
as §1, §2

Test [6] addresses other members of the PDE family (Homo sapiens, UniProt Q14432). The description is as above. The conditions noted are these: hPDE3A; read-out: PDE 3A (expressed as pIC50) (converted). The format is biochemical. The procedure: as §1, §2
Test [7] concerns the target other members of the PDE family (Homo sapiens, UniProt Q9HCR9). Described as above. The class given is biochemical. The conditions noted are these: hPDE11A4; read-out: PDE 11A4 (expressed as pIC50) (converted). The protocol: as §1, §2
For the next test, the target named is PDE5A3 (Homo sapiens, UniProt O76074). As to the kind of experiment: In vitro PDE selectivity assay (SPA), PDE5A3. The class given is biochemical. The conditions noted are these: hPDE5A3; read-out: PDE 5A3 (expressed as pIC50) (converted). The protocol:
as §1, §2

[8] abbreviates: Table 4 in vitro selectivity, read-out: PDE 10A2 (expressed as pIC50) (converted).
Where [9] appears, read: pIC50 corresponds to the −log IC50 expressed in mol/L, read-out: PDE10A2 pIC50 (converted).
Setting [10] is: dose at which 50% of the tested animals show the effect, ≧: active in 30% of the animals at the indicated dose, ≦: active in 60%.
Setting [11] is: sc, subcutaneous, read-out: SD sc % occupancy at 10 mg/kg.
The mark [12] stands for this setting: oral, read-out: SD po % occupancy at 10 mg/kg.
Setting [13] is: po, n.d.: found not active at threshold dose 2.5 mg/kg or 10 mg/kg (a), * not soluble, tested orally as a suspension.
Where [14] appears, read: n.d.: found not active at threshold dose 2.5 mg/kg or 10 mg/kg (a), not further tested.

Read-outs that look alike come from different tables or passages of the source. Where only a bound is given, the exact number is not on record here.

PDE4D3, sequence (Q08499 1-673 isoform Q08499-2): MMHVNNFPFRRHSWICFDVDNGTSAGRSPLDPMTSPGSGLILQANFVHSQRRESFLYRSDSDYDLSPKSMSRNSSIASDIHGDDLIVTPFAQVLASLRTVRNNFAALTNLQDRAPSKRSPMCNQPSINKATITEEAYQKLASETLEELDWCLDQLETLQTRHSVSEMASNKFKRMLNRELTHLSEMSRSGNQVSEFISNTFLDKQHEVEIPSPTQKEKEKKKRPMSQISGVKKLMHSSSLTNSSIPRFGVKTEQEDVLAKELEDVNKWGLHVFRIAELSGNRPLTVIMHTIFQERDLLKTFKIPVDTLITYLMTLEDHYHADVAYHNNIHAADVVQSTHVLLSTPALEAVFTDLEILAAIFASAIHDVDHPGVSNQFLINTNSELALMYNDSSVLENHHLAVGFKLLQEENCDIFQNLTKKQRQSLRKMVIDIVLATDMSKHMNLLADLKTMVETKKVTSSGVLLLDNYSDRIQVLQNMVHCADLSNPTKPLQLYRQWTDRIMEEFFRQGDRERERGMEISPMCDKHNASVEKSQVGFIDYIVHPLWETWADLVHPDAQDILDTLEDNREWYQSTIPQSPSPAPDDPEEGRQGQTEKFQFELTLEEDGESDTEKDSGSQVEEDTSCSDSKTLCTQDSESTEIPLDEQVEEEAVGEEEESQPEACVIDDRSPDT
other members of the PDE family (Homo sapiens, UniProt Q13946), sequence (Q13946 whole entry): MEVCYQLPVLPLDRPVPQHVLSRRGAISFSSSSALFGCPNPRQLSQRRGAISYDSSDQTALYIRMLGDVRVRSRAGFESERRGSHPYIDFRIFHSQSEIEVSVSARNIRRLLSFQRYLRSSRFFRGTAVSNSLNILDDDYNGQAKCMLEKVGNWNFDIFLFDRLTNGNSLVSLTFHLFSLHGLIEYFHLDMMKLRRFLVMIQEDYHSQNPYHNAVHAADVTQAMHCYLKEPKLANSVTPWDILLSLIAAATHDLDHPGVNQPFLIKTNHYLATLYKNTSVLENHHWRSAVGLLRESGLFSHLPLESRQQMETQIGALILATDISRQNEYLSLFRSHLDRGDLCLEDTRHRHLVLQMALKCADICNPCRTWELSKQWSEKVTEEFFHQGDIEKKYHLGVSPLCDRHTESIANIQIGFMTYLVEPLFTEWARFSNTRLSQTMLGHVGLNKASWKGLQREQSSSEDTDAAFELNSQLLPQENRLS
other members of the PDE family (Homo sapiens, UniProt Q14432), sequence (Q14432 whole entry): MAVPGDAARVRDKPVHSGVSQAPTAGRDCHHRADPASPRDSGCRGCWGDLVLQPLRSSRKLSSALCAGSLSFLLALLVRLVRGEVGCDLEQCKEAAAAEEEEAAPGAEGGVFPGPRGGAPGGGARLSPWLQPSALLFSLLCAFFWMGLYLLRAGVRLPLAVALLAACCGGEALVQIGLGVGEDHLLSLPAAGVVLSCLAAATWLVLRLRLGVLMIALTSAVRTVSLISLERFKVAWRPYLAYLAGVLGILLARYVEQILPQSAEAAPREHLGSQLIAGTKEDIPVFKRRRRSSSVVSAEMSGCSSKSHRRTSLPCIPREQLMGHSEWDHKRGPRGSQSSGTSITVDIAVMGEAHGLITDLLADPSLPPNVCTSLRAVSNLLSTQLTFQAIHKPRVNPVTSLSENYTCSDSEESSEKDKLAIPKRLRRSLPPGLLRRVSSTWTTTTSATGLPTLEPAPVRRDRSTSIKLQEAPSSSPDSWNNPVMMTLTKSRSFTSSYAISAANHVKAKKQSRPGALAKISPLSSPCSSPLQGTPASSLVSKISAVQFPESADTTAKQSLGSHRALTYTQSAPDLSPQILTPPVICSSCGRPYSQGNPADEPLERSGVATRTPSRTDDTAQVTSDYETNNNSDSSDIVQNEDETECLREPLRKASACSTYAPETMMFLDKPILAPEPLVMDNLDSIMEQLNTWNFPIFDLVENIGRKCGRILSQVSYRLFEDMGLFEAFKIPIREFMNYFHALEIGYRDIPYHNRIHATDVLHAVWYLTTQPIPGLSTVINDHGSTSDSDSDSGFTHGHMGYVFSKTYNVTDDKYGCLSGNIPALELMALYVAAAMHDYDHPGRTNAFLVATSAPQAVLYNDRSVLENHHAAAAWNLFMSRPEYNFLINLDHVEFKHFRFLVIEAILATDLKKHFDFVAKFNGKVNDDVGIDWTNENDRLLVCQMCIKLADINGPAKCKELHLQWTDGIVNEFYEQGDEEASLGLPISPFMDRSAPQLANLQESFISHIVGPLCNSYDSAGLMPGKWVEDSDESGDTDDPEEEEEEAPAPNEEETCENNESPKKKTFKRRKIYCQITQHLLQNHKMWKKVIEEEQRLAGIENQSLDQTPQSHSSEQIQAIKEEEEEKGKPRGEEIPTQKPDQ
other members of the PDE family (Homo sapiens, UniProt O00408), sequence (O00408 whole entry): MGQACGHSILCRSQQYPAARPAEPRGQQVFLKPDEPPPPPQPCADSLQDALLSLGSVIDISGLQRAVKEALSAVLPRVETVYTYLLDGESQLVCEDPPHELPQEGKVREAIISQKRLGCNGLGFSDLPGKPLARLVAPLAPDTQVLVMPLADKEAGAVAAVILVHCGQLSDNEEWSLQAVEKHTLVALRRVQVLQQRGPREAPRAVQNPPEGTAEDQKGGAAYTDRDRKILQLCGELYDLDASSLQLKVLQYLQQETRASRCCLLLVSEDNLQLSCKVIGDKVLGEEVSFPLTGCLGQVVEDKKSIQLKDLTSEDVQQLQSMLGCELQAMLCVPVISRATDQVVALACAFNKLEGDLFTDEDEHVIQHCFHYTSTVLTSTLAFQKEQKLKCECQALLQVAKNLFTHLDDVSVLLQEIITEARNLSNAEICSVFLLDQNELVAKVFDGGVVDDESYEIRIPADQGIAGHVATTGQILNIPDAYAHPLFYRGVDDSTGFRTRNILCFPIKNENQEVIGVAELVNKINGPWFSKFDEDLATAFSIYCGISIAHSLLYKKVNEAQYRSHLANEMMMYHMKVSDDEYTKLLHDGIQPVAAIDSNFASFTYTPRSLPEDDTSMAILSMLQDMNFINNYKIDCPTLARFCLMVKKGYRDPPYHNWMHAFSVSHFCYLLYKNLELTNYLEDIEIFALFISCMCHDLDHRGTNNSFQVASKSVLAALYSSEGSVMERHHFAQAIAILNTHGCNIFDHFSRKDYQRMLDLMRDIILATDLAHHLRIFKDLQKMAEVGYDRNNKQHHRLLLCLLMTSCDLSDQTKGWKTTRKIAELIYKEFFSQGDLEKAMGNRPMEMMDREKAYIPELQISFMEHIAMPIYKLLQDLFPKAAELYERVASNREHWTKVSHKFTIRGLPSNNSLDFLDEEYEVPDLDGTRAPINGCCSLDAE
other members of the PDE family (Homo sapiens, UniProt O76083), sequence (O76083 whole entry): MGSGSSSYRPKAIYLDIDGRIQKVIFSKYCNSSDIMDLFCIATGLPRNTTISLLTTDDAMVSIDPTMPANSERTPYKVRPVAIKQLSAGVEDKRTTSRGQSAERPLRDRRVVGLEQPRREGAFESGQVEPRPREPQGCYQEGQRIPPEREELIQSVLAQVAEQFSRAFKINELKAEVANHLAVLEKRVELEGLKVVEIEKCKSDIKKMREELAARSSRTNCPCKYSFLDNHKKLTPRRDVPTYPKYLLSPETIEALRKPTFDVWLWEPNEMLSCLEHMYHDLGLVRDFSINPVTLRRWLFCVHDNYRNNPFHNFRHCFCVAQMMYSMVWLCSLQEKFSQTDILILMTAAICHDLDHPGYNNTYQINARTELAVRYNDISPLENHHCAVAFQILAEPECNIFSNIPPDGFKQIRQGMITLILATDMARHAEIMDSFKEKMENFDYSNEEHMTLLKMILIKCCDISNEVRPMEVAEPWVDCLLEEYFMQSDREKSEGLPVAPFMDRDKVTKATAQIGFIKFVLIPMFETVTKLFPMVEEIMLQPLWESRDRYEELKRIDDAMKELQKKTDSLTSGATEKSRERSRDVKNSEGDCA
other members of the PDE family (Homo sapiens, UniProt Q9HCR9), sequence (Q9HCR9 whole entry): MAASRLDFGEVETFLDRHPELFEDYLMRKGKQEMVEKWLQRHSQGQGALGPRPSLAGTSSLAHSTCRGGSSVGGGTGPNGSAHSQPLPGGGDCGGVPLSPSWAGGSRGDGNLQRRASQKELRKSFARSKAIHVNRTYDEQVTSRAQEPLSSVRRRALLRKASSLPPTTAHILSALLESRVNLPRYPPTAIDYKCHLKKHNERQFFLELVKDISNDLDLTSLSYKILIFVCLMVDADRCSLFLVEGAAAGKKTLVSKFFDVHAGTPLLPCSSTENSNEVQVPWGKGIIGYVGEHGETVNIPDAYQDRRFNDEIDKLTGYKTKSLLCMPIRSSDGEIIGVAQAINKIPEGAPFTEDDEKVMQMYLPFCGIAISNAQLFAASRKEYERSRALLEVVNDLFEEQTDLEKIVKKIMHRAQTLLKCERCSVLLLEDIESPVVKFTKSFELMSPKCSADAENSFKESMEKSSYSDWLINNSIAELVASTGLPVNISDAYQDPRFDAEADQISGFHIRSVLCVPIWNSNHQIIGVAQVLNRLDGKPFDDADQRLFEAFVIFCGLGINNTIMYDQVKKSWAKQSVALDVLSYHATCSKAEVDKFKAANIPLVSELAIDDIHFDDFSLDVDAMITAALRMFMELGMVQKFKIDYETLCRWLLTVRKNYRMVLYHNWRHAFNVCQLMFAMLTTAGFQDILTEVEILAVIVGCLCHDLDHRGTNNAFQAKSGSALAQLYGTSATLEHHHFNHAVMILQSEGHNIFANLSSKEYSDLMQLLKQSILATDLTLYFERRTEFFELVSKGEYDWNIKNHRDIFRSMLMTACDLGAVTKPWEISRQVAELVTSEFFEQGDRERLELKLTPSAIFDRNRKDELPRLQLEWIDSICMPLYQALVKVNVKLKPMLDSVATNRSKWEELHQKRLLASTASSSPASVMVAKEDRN

The term ED50 denotes the dose at which the effect has come halfway, by size or by number of responders. `COC(C)(C)Cc1ccc(-c2c(C)nc3c(-c4ccncc4)ccnn23)cn1` [compound 7, 3-[6-(2-methoxy-2-methylpropyl)-3-pyridinyl-2-methyl-8-(4-pyridinyl)-imidazol-1,2-b]pyridazine]: the IC50 in test [1] (setting [8]) was 25.7 nM; in test [1] (setting [9]), 25.7 nM; in test [2] it was more than 10 µM. Besides, the ED50 in [3] (setting [10]) came to 0.3 mg/kg; on PDE10 (sc, subcutaneous administration, read-out: PDE10 in vivo occupancy ED50 sc) it was 1.6 mg/kg.

Turning to `COC(C)(C)COc1ccc(-c2c(C)nc3c(N4CCOCC4)ccnn23)cn1` [compound 18, 3-[6-(2-methoxy-2-methylpropoxy)-3-pyridinyl]-2-methyl-8-(4-morpholinyl)-imidazo[,2-b]pyridazine], the IC50 was 170 nM in test [1] (setting [8]); 170 nM in [1] (setting [9]); more than 10 µM on PDE4D3; more than 10 µM in test [2]; more than 10 µM in test [4]; more than 10 µM in [5]. In addition, the IC50 in [6] and in test [7] was more than 10 µM throughout. This compound yielded an ED50 in test [3] (setting [10]) of 5 mg/kg. In addition, on PDE10 (setting [11]), the receptor occupancy at 10 mg/kg was 46%.

For `COC(C)(C)Cc1ccc(-c2c(C)nc3c(-c4ccncc4)cc(C)nn23)cn1` [compound 48, 3-[6-(2-methoxy-2-methylpropyl)-3-pyridinyl]-2,6-dimethyl-8-(4-pyridinyl)-imidazo[1,2-b]pyridazine], the IC50 in [1] (setting [8]) is 115 nM; in test [1] (setting [9]) it was 115 nM; in test [2], more than 10 µM. Moreover, the ED50 in [3] (setting [10]) was not below 2.5 mg/kg; on PDE10 (oral administration, read-out: PDE10 in vivo occupancy ED50 po), 4.3 mg/kg.

For the compound `Cc1nc2c(N3CCOCC3)ccnn2c1-c1cnn(C2CCOCC2)c1` [compound 117, 2-methyl-8-(4-morpholinyl)-3-[1-(tetrahydro-2H-pyran-4-yl)-1H-pyrazol-4-yl]-imidazo[1,2-b]pyridazine], the IC50 in [1] (setting [8]) was 97.7 nM; in test [1] (setting [9]), 97.7 nM; on PDE4D3, more than 10 µM; on PDE5A3, more than 10 µM; in test [2] it was more than 10 µM; in test [4] it was more than 10 µM. For the same compound, the IC50 in [5] and in test [6] was more than 10 µM in each case.

As to `Cc1nc2c(N3CCOCC3)ccnn2c1-c1cnn(CC2CC2(F)F)c1` (centres unmarked) [compound 118], the IC50 in test [1] (setting [8]) is 50.1 nM; in test [1] (setting [9]) it was 50.1 nM; at PDE4D3, more than 10 µM; in test [2], more than 10 µM; in [4], more than 10 µM; in test [5] it was more than 10 µM. The IC50 in test [6] and in test [7] was more than 10 µM throughout. In test [3] (po, * compound not soluble, tested orally as a suspension, ≧: active in 30% of the animals at the indicated dose, ≦: active in 60%), this compound had an ED50 not above 10 mg/kg. In addition, the receptor occupancy at 10 mg/kg on PDE10 (setting [12]) amounted to 4%.

On to `COCCn1cc(-c2c(C)nc3c(N4CCOCC4)cc(C(F)(F)F)nn23)cn1` [compound 130, 3-[1-(2-methoxyethyl)-1H-pyrazol-4-yl]-2-methyl-8-(4-morpholinyl)-6-(trifluoromethyl)-imidazo[1,2-b]pyridazine], for which the IC50 in [1] (setting [9]) is 219 nM. The compound further returned an ED50 in test [3] (setting [13]) of more than 10 mg/kg. Moreover, the receptor occupancy at 10 mg/kg on PDE10 (setting [12]) turned out to be 6%.

Regarding `CCc1nc2c(-c3ccncc3)ccnn2c1-c1cnn(CCOC)c1` [compound 132, 2-ethyl-3-[1-(2-methoxyethyl)-1H-pyrazol-4-yl]-8-(4-pyridinyl)-imidazo[1,2-b]pyridazine], in test [1] (setting [9]), the IC50 is 70.8 nM. For the same compound, the ED50 in [3] (setting [14]) is more than 10 mg/kg. In addition, at PDE10 (setting [11]), the receptor occupancy at 10 mg/kg was 44%.

For `Cc1nc2c(N3CCOCC3)ccnn2c1-c1cnn(CC(F)(F)F)c1` [compound 137, 2-methyl-8-(4-morpholinyl)-3-[1-(2,2,2-trifluoroethyl)-1H-pyrazol-4-yl]-imidazo[1,2-b]pyridazine], in test [1] (setting [9]), the IC50 is 25.7 nM. Moreover, the ED50 in test [3] (setting [14]) is more than 2.5 mg/kg. In addition, the receptor occupancy at 10 mg/kg at PDE10 (setting [12]) stood at 12%.

Regarding `FC(F)(F)Cn1cc(-c2c(C3CC3)nc3c(N4CCOCC4)ccnn23)cn1` [compound 138, 2-cyclopropyl-8-(4-morpholinyl)-3-[1-(2,2,2-trifluoroethyl)-1H-pyrazol-4-yl]-imidazo[1,2-b]pyridazine], in test [1] (setting [9]), the IC50 is 39.8 nM. Also, in test [3] (setting [13]), the ED50 is more than 10 mg/kg. The receptor occupancy at 10 mg/kg on PDE10 (setting [12]) is 11%.

Take `COCCn1cc(-c2c(OC)nc3c(N4CCOCC4)ccnn23)cn1` [compound 140, 2-methoxy-3-[1-(2-methoxyethyl)-1H-pyrazol-4-yl]-8-(4-morpholinyl)-imidazo[1,2-b]pyridazine]: in [1] (setting [9]), the IC50 was 174 nM. The same compound gave an ED50 in [3] (setting [14]) of more than 10 mg/kg. Besides, at PDE10 (setting [12]), the receptor occupancy at 10 mg/kg turned out to be 0%.
